The values that follow are results of earlier work, collected in patent US10596159B2, “Method and composition for treating cachexia and eating disorders” (India Globalization Capital, Inc., priority 2015, dated 2020).

For data set [1] the following is noted: HIV-positive and cancer patients; Gorter, 1999.
Setting [2] is: advanced cancer patients, Ronga, et al. 2014.

Where two headings read alike, the source gives them in different places.

Take `CN1CCC(=C2c3ccccc3C=Cc3ccccc32)CC1.Cl` [cyproheptadine, 4-(5H-dibenzo [a,d]cyclohepten-5-ylidene)-1-methylpiperidine hydrochloride]: for the setting “Suzuki, et al. 2013”, the appetite stimulation entry was “effective in stimulating appetite” and the “effect on weight loss” value was “only slight effects on weight loss”. In addition, under setting [2], the appetite stimulation result is “only mildly stimulated appetite” and the “effect on progressive weight loss” value is listed as “did not prevent progressive weight loss”.
Consider `CCCCCc1cc(O)c2c(c1)OC(C)(C)[C@@H]1CCC(C)=C[C@@H]21` [THC, Delta-9-tetrahydrocannabinol], for which, in data set [1], the appetite result is recorded as “stimulation of appetite” and the body weight result is recorded as “increase of body weight”.
